Source: the supplement of paper PMC10627819

What was measured:
[1] = test system: S. aureus DSM 20231; assay: fitness (endpoint OD595 vs no drug) (fraction); higher = more growth
Outline: (§1)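 In 384-well plates at 37 °C, cultures began at OD595 0.01 in 30 µl, with 55 µl used for S. pneumoniae. OD595 readings every 30 min for 14 h were corrected by the first reading. Fitness divides the stationary-phase transition optical density by the robust mean of no-drug control wells. The result is capped at 1.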

[2] = test system: S. aureus Newman; assay: as above
Outline: as §1

[3] = test system: S. pneumoniae D39V; assay: as above
Outline: as §1

[4] = test system: B. subtilis 168; assay: Bliss interaction score (quartile over a dose matrix) (fitness difference); higher = more antagonism (negative = synergy)
Outline: (§2)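 Fitness was derived from optical density at entry into stationary phase, divided by the robust mean of the no-drug wells on the same plate. That reading was taken as OD595, and the ratio was capped at 1. Single-drug fitness was inferred from the combination data. The Bliss score, observed fitness minus the expected product of single-drug fitness, was summarised as quartiles over technical, biological and donor/recipient replicates.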

[5] = test system: S. aureus DSM 20231; assay: as above
Outline: as §2

[6] = test system: S. aureus Newman; assay: as above
Outline: as §2

[7] = test system: S. pneumoniae D39V; assay: as above
Outline: as §2
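Throughout, for Bliss interaction score (quartile over a dose matrix): first quartile when negative (synergy) and third quartile when positive (antagonism).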

CC1(C)S[C@@H]2[C@H](NC(=O)[C@H](N)c3ccc(O)cc3)C(=O)N2[C@H]1C(=O)O [Amoxicillin] + CC1=C\[C@@H](O)CC(=O)Cc2nc(co2)C(=O)N2CCC=C2C(=O)O[C@H](C(C)C)[C@H](C)/C=C/C(=O)NC\C=C\1 [Virginiamycin M1]
Details | fitness
[1], first compound 0.0625 µg/mL, partner 0.0625 µg/mL | 0.48
[1], first compound 0.0625 µg/mL, partner 0.125 µg/mL | 0.488
[1], first compound 0.0625 µg/mL, partner 0.25 µg/mL | 0.504
[1], first compound 0.125 µg/mL, partner 0.0625 µg/mL | 0.329
[1], first compound 0.25 µg/mL, partner 0.125 µg/mL | 0.0421
[1], first compound 0.25 µg/mL, partner 0.25 µg/mL | 0.0398
[2], first compound 0.0625 µg/mL, partner 0.0625 µg/mL | 0.935
[2], first compound 0.0625 µg/mL, partner 0.125 µg/mL | 0.893
[2], first compound 0.0625 µg/mL, partner 0.25 µg/mL | 0.906
[2], first compound 0.125 µg/mL, partner 0.0625 µg/mL | 0.883
[2], first compound 0.125 µg/mL, partner 0.125 µg/mL | 0.948
[2], first compound 0.125 µg/mL, partner 0.25 µg/mL | 0.945
[2], first compound 0.25 µg/mL, partner 0.0625 µg/mL | 0.867
[2], first compound 0.25 µg/mL, partner 0.125 µg/mL | 0.921
[2], first compound 0.25 µg/mL, partner 0.25 µg/mL | 0.886
[3], first compound 0.0008 µg/mL, partner 0.5 µg/mL | 0.988
[3], first compound 0.0008 µg/mL, partner 1 µg/mL | ≥ 1
[3], first compound 0.0008 µg/mL, partner 2 µg/mL | 0.937
[3], first compound 0.0015 µg/mL, partner 0.5 µg/mL | 0.978
[3], first compound 0.0015 µg/mL, partner 1 µg/mL | 0.965
[3], first compound 0.0015 µg/mL, partner 2 µg/mL | 0.95
[3], first compound 0.003 µg/mL, partner 0.5 µg/mL | 0.926
[3], first compound 0.003 µg/mL, partner 1 µg/mL | 0.956
[3], first compound 0.003 µg/mL, partner 2 µg/mL | 0.914

one replicate
Details | fitness
[1], first compound 0.0625 µg/mL, partner 0.5 µg/mL | 0.541
[1], first compound 0.0625 µg/mL, partner 1 µg/mL | 0.699
[1], first compound 0.125 µg/mL, partner 0.5 µg/mL | 0.444
[1], first compound 0.125 µg/mL, partner 1 µg/mL | 0.497
[1], first compound 0.25 µg/mL, partner 0.5 µg/mL | 0.0437
[1], first compound 0.25 µg/mL, partner 1 µg/mL | 0.108
[1], first compound 0.5 µg/mL, partner 0.0625 µg/mL | 0.0149
[1], first compound 0.5 µg/mL, partner 0.125 µg/mL | 0.0318
[1], first compound 0.5 µg/mL, partner 0.25 µg/mL | 0.0127
[2], first compound 0.125 µg/mL, partner 0.5 µg/mL | 0.81
[2], first compound 0.125 µg/mL, partner 1 µg/mL | ≥ 1
[2], first compound 0.125 µg/mL, partner 2 µg/mL | 0.845
[2], first compound 0.25 µg/mL, partner 0.5 µg/mL | 0.813
[2], first compound 0.25 µg/mL, partner 1 µg/mL | 0.865
[2], first compound 0.25 µg/mL, partner 2 µg/mL | 0.754
[2], first compound 0.5 µg/mL, partner 0.5 µg/mL | 0.74
[2], first compound 0.5 µg/mL, partner 1 µg/mL | 0.828
[2], first compound 0.5 µg/mL, partner 2 µg/mL | 0.732
[3], first compound 0.0008 µg/mL, partner 0.15 µg/mL | 0.996
[3], first compound 0.0008 µg/mL, partner 0.3 µg/mL | 0.892
[3], first compound 0.0015 µg/mL, partner 0.15 µg/mL | 0.948
[3], first compound 0.0015 µg/mL, partner 0.3 µg/mL | 0.9
[3], first compound 0.003 µg/mL, partner 0.15 µg/mL | 0.951
[3], first compound 0.003 µg/mL, partner 0.3 µg/mL | 0.906
[3], first compound 0.006 µg/mL, partner 0.5 µg/mL | 0.447
[3], first compound 0.006 µg/mL, partner 1 µg/mL | 0.474
[3], first compound 0.006 µg/mL, partner 2 µg/mL | 0.46

Details | Bliss interaction score
[4] | -0.0567
[5] | -0.0553
[6] | 0.0682
[7] | -0.0459

CC1(C)S[C@@H]2[C@H](NC(=O)[C@H](N)c3ccc(O)cc3)C(=O)N2[C@H]1C(=O)O [Amoxicillin] + CCC[C@@H]1C[C@@H](C(=O)N[C@@H]([C@H]2O[C@H](SC)[C@H](O)[C@@H](O)[C@H]2O)[C@H](C)Cl)N(C)C1 [Clindamycin]
Details | fitness
[1], first compound 0.0625 µg/mL, partner 0.0625 µg/mL | 0.132
[1], first compound 0.0625 µg/mL, partner 0.125 µg/mL | 0.0693
[1], first compound 0.125 µg/mL, partner 0.0312 µg/mL | 0.157
[1], first compound 0.125 µg/mL, partner 0.0625 µg/mL | 0.0589
[1], first compound 0.125 µg/mL, partner 0.125 µg/mL | 0.0684
[1], first compound 0.25 µg/mL, partner 0.0312 µg/mL | 0.0508
[1], first compound 0.25 µg/mL, partner 0.0625 µg/mL | 0.038
[1], first compound 0.25 µg/mL, partner 0.125 µg/mL | 0.0621
[1], first compound 0.5 µg/mL, partner 0.0312 µg/mL | 0.0205
[1], first compound 0.5 µg/mL, partner 0.0625 µg/mL | 0.0091
[1], first compound 0.5 µg/mL, partner 0.125 µg/mL | 0.0231
[2], first compound 0.0625 µg/mL, partner 0.0312 µg/mL | 0.698
[2], first compound 0.125 µg/mL, partner 0.125 µg/mL | 0.0978
[3], first compound 0.0008 µg/mL, partner 0.0125 µg/mL | 0.796
[3], first compound 0.0008 µg/mL, partner 0.025 µg/mL | 0.519
[3], first compound 0.0008 µg/mL, partner 0.05 µg/mL | 0.203
[3], first compound 0.0015 µg/mL, partner 0.0125 µg/mL | 0.77
[3], first compound 0.0015 µg/mL, partner 0.015 µg/mL | 0.92
[3], first compound 0.0015 µg/mL, partner 0.025 µg/mL | 0.488
[3], first compound 0.0015 µg/mL, partner 0.03 µg/mL | 0.757
[3], first compound 0.0015 µg/mL, partner 0.05 µg/mL | 0.186
[3], first compound 0.0015 µg/mL, partner 0.06 µg/mL | 0.539
[3], first compound 0.003 µg/mL, partner 0.0125 µg/mL | 0.77
[3], first compound 0.003 µg/mL, partner 0.015 µg/mL | 0.872
[3], first compound 0.003 µg/mL, partner 0.025 µg/mL | 0.482
[3], first compound 0.003 µg/mL, partner 0.03 µg/mL | 0.726
[3], first compound 0.003 µg/mL, partner 0.05 µg/mL | 0.186
[3], first compound 0.003 µg/mL, partner 0.06 µg/mL | 0.509

fitness, [3], one replicate
Details | partner 0.015 µg/mL | partner 0.03 µg/mL | partner 0.06 µg/mL
first compound 0.0008 µg/mL | 0.962 | 0.84 | 0.557
first compound 0.006 µg/mL | 0.505 | 0.385 | 0.298

Details | Bliss interaction score
[4] | -0.0391
[5] | 0.0324
[6] | -0.0717
[7] | 0.151

CC1(C)S[C@@H]2[C@H](NC(=O)[C@H](N)c3ccc(O)cc3)C(=O)N2[C@H]1C(=O)O [Amoxicillin] + CCN(CC)CCOC(=O)c1ccc(N)cc1 [Procaine]
fitness
Details | partner 85.5 µg/mL | partner 171 µg/mL | partner 342 µg/mL
[1], first compound 0.0625 µg/mL | 0.455 | 0.523 | 0.523
[1], first compound 0.125 µg/mL | 0.423 | 0.478 | 0.495
[1], first compound 0.25 µg/mL | 0.0255 | – | –
[2], first compound 0.0625 µg/mL | 0.862 | 0.875 | 0.861
[2], first compound 0.125 µg/mL | – | 0.847 | 0.861
[2], first compound 0.25 µg/mL | – | 0.841 | 0.811
[3], first compound 0.0008 µg/mL | 1 | 0.989 | 0.942
[3], first compound 0.0015 µg/mL | 0.985 | 0.971 | 0.987
[3], first compound 0.003 µg/mL | 0.918 | 0.93 | 0.992

fitness, one replicate
Details | partner 85.5 µg/mL | partner 171 µg/mL | partner 342 µg/mL
[1], first compound 0.5 µg/mL | 0.0288 | 0.0239 | 0.0199
[3], first compound 0.006 µg/mL | 0.536 | 0.524 | 0.519

Details | Bliss interaction score
[4] | -0.036
[5] | -0.0798
[6] | -0.0462
[7] | 0.0262
